Laboratory results: PubChem BioAssay AID328 (DTP/NCI, 2004)
“And” between values parts separate entries of the source, which are not always exact repeats. Identical values can stand only once. Inconclusive results and toxic doses are left out. The calls were made as follows: active = survival T/C of 150% or more; inactive = T/C below 125% in these data.

System: BDF1 mice, P388 leukemia ip, median survival T/C
Assay: NCI In Vivo Anticancer Drug Screen. Data for tumor model P388 Leukemia (intraperitoneal) in B6D2F1 (BDF1) mice
Conditions: endpoint: median survival time, higher = longer survival
Summary of the method: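 Transplantable tumour in mice; compound vs vehicle dosing; survival scored; ratio of treated to control reported.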

[1] = dose: 50.0 mg/kg/injection, schedule: Q01DX009 (ip), vehicle: Klucel (hydroxypropylcellulose) (HPC)
[2] = dose: 50.0 mg/kg/injection, schedule: Q01DX009 (ip), vehicle: saline with Tween-80
[3] = dose: 50.0 mg/kg/injection, schedule: Q04DX003 (ip), vehicle: Klucel (hydroxypropylcellulose) (HPC)
[4] = dose: 100.0 mg/kg/injection, schedule: Q01DX009 (ip), vehicle: Klucel (hydroxypropylcellulose) (HPC)
[5] = dose: 6.25 mg/kg/injection, schedule: Q01DX009 (ip), vehicle: saline
[6] = dose: 12.5 mg/kg/injection, schedule: Q01DX009 (ip), vehicle: saline
[7] = dose: 25.0 mg/kg/injection, schedule: Q01DX009 (ip), vehicle: saline
[8] = dose: 100.0 mg/kg/injection, schedule: Q01DX009 (ip), vehicle: saline with Tween-80
[9] = dose: 200.0 mg/kg/injection, schedule: Q01DX009 (ip), vehicle: saline with Tween-80
[10] = dose: 100.0 mg/kg/injection, schedule: Q04DX003 (ip), vehicle: Klucel (hydroxypropylcellulose) (HPC)
[11] = dose: 200.0 mg/kg/injection, schedule: Q04DX003 (ip), vehicle: Klucel (hydroxypropylcellulose) (HPC)
[12] = dose: 2.0 mg/kg/injection, schedule: Q01DX009 (ip), vehicle: saline

Measured: T/C

N#Cc1ccc(S(N)(=O)=O)cc1
inactive: dose: 12.5 mg/kg/injection, schedule: Q04DX003 (ip), vehicle: Klucel (hydroxypropylcellulose) (HPC) 109 % of control | dose: 25.0 mg/kg/injection, schedule: Q01DX009 (ip), vehicle: Klucel (hydroxypropylcellulose) (HPC) 111 % of control | dose: 25.0 mg/kg/injection, schedule: Q04DX003 (ip), vehicle: Klucel (hydroxypropylcellulose) (HPC) 109 % of control | [1] 111 % of control | [2] 100 % of control | [3] 104 % of control | [4] 111 % of control

C[N+]1=C2CCCCCC2=C(N)CC1
inactive: [5] 100 % of control | [6] 100 % of control | dose: 12.5 mg/kg/injection, schedule: Q04DX003 (ip), vehicle: saline sonified 91 % of control | [7] 100 % of control

CN(C)/N=N/c1nc[nH]c1C(N)=O
active: dose: 775.0 mg/kg/injection, schedule: Q01DX001 (ip), vehicle: carboxymethylcellulose (CMC) 158 % of control
inactive: dose: 25.0 mg/kg/injection, schedule: Q01DX010 (ip), vehicle: saline 116 % of control | [1] 100 % of control and 108 % of control and 123 % of control | dose: 50.0 mg/kg/injection, schedule: Q01DX010 (ip), vehicle: saline 100 % of control | [4] 92 % of control and 97 % of control and 100 % of control | dose: 200.0 mg/kg/injection, schedule: Q01DX009 (ip), vehicle: Klucel (hydroxypropylcellulose) (HPC) 100 % of control (2×) and 115 % of control | dose: 208.0 mg/kg/injection, schedule: Q01DX001 (ip), vehicle: carboxymethylcellulose (CMC) 109 % of control | dose: 275.0 mg/kg/injection, schedule: Q01DX001 (ip), vehicle: carboxymethylcellulose (CMC) 110 % of control and 116 % of control | dose: 400.0 mg/kg/injection, schedule: Q01DX009 (ip), vehicle: Klucel (hydroxypropylcellulose) (HPC) 115 % of control and 122 % of control and 123 % of control | dose: 418.0 mg/kg/injection, schedule: Q01DX001 (ip), vehicle: carboxymethylcellulose (CMC) 119 % of control

CCSC1(SCC)C(=O)OC2=C(CCCCCC2)C1N(C)C (centres undefined)
inactive: [2] 96 % of control | [8] 99 % of control | [9] 99 % of control

CCOc1nc(=O)n(C2CCOC2=O)cc1F (centres undefined)
inactive: dose: 100.0 mg/kg/injection, schedule: Q01DX001 (ip), vehicle: Klucel (hydroxypropylcellulose) (HPC) 100 % of control | dose: 200.0 mg/kg/injection, schedule: Q01DX001 (ip), vehicle: Klucel (hydroxypropylcellulose) (HPC) 100 % of control | dose: 400.0 mg/kg/injection, schedule: Q01DX001 (ip), vehicle: Klucel (hydroxypropylcellulose) (HPC) 104 % of control

C=CC(=O)NCCC(=O)O
inactive: dose: 50.0 mg/kg/injection, schedule: Q01DX009 (ip), vehicle: saline 100 % of control | dose: 100.0 mg/kg/injection, schedule: Q01DX009 (ip), vehicle: saline 90 % of control | dose: 200.0 mg/kg/injection, schedule: Q01DX009 (ip), vehicle: saline 94 % of control

CCCCCCCCCCCCC(C(=O)O)C1C=CCC1 (centres undefined)
inactive: dose: 100.0 mg/kg/injection, schedule: Q01DX001 (ip), vehicle: other 100 % of control | dose: 200.0 mg/kg/injection, schedule: Q01DX001 (ip), vehicle: other 100 % of control | dose: 400.0 mg/kg/injection, schedule: Q01DX001 (ip), vehicle: other 100 % of control

Nc1ccccc1/C=C(\C(=O)O)c1cccc(Cl)c1
inactive: [10] 95 % of control | [11] 104 % of control | dose: 400.0 mg/kg/injection, schedule: Q04DX003 (ip), vehicle: Klucel (hydroxypropylcellulose) (HPC) 100 % of control

CC[n+]1cccc(NC(=O)c2ccc(NC(=O)c3ccc(C(=O)Nc4ccc(C(=O)Nc5ccc[n+](CC)c5)cc4)cc3)cc2)c1
active: dose: 0.88 mg/kg/injection, schedule: Q01DX009 (ip), vehicle: saline 150 % of control | dose: 1.32 mg/kg/injection, schedule: Q01DX009 (ip), vehicle: saline 163 % of control | [12] 190 % of control | dose: 2.77 mg/kg/injection, schedule: Q01DX009 (ip), vehicle: saline 204 % of control | dose: 3.0 mg/kg/injection, schedule: Q01DX009 (ip), vehicle: saline 177 % of control | dose: 4.17 mg/kg/injection, schedule: Q01DX009 (ip), vehicle: saline 191 % of control | [5] 183 % of control and 220 % of control | dose: 9.38 mg/kg/injection, schedule: Q01DX009 (ip), vehicle: saline 237 % of control | dose: 11.0 mg/kg/injection, schedule: Q04DX003 (ip), vehicle: saline 168 % of control | [6] 295 % of control | dose: 16.5 mg/kg/injection, schedule: Q04DX003 (ip), vehicle: saline 200 % of control | dose: 25.0 mg/kg/injection, schedule: Q04DX003 (ip), vehicle: saline 200 % of control | dose: 37.5 mg/kg/injection, schedule: Q04DX003 (ip), vehicle: saline 181 % of control
inactive: dose: 0.44 mg/kg/injection, schedule: Q04DX003 (ip), vehicle: saline 118 % of control | [7] 90 % of control

NC(=O)CNC1=C(N2CC2)C(=O)C(NCC(N)=O)=C(N2CC2)C1=O
active: [12] 171 % of control | dose: 4.0 mg/kg/injection, schedule: Q01DX009 (ip), vehicle: saline 166 % of control
inactive: dose: 8.0 mg/kg/injection, schedule: Q01DX009 (ip), vehicle: saline 116 % of control

COc1cc(C=Nc2ccc(Cl)cc2)ccc1N(CCCl)CCCl
inactive: dose: 22.0 mg/kg/injection, schedule: Q04DX003 (ip), vehicle: saline 113 % of control | dose: 33.0 mg/kg/injection, schedule: Q04DX003 (ip), vehicle: saline 100 % of control
active: dose: 2.2 mg/kg/injection, schedule: Q01DX009 (ip), vehicle: other 162 % of control | dose: 3.3 mg/kg/injection, schedule: Q01DX009 (ip), vehicle: other 150 % of control | dose: 5.0 mg/kg/injection, schedule: Q01DX009 (ip), vehicle: other 179 % of control | dose: 7.5 mg/kg/injection, schedule: Q01DX009 (ip), vehicle: other 183 % of control | dose: 22.0 mg/kg/injection, schedule: Q04DX003 (ip), vehicle: other 245 % of control | dose: 33.0 mg/kg/injection, schedule: Q04DX003 (ip), vehicle: other 272 % of control | dose: 50.0 mg/kg/injection, schedule: Q04DX003 (ip), vehicle: other 186 % of control | dose: 75.0 mg/kg/injection, schedule: Q04DX003 (ip), vehicle: saline 181 % of control

O=C1OC(=O)C2C1C1C3C=CC3C1C21C=C1 (centres undefined)
inactive: dose: 85.0 mg/kg/injection, schedule: Q04DX003 (ip), vehicle: Klucel (hydroxypropylcellulose) (HPC) 95 % of control | dose: 100.0 mg/kg/injection, schedule: Q01DX001 (ip), vehicle: saline 113 % of control and 116 % of control | dose: 135.0 mg/kg/injection, schedule: Q04DX003 (ip), vehicle: Klucel (hydroxypropylcellulose) (HPC) 104 % of control | dose: 200.0 mg/kg/injection, schedule: Q01DX001 (ip), vehicle: saline 113 % of control | [11] 113 % of control | dose: 300.0 mg/kg/injection, schedule: Q04DX003 (ip), vehicle: Klucel (hydroxypropylcellulose) (HPC) 118 % of control | dose: 400.0 mg/kg/injection, schedule: Q01DX001 (ip), vehicle: saline 100 % of control and 104 % of control

Oc1ccc2ccccc2c1N=Nc1ccc(F)cc1
inactive: [8] 100 % of control | [9] 90 % of control | dose: 400.0 mg/kg/injection, schedule: Q01DX009 (ip), vehicle: saline with Tween-80 95 % of control

CC(=O)N(O)CCCCCNC(=O)CCC(=O)N(O)CCCCCNC(=O)CCC(=O)N(O)CCCCCN
inactive: [2] 101 % of control | [8] 102 % of control

OC(c1cc(C(F)(F)F)nc2c(F)cccc12)C1CCCCN1 (centres undefined)
inactive: dose: 100.0 mg/kg/injection, schedule: Q01DX001 (ip), vehicle: saline with Tween-80 91 % of control | dose: 200.0 mg/kg/injection, schedule: Q01DX001 (ip), vehicle: saline with Tween-80 95 % of control | dose: 400.0 mg/kg/injection, schedule: Q01DX001 (ip), vehicle: saline with Tween-80 100 % of control

O=C(O)CC(SC(c1ccccc1)(c1ccccc1)c1ccccc1)C(=O)O (centres undefined)
inactive: [3] 86 % of control | [10] 86 % of control | [11] 95 % of control

O=C(/C=C/c1ccc(OCc2ccccc2)cc1)c1cccs1
inactive: [2] 98 % of control | [8] 92 % of control
